Laboratory results taken from patent US20040023994A1 (priority 2002, published 2004).
Read-outs that look alike come from different tables or passages of the source. Marks after values point to notes of the source that are not given here.

Columns and labels:
MDA-MB-435 = details: MDA-MB-435, Breast, NCI database, cited from earlier work; for CC50: read-out: LC50 (the source's name)
HCT-116 = details: HCT-116, Colon, NCI database, cited from earlier work; for CC50: read-out: LC50 (the source's name)
SN12C = details: Renal, NCI database, cited from earlier work; for CC50: read-out: LC50 (the source's name)
TK-10 = details: TK-10, Renal, NCI database, cited from earlier work; for CC50: read-out: LC50 (the source's name)
SF-295 = details: SF-295, CNS, NCI database, cited from earlier work; for CC50: read-out: LC50 (the source's name)
[1] = test system: Heterozygous nude CD-1 male mice; experiment: Liver function (AST, ALT in plasma) and liver histopathology in treated mice
Protocol: (§1) Heterozygous nude CD-1 male mice were treated (i.p.) with multiple doses consisting of either one dose daily for three consecutive days (cis-AVTP or trans-AVTG, 21.25 μmol/kg, 6-TG, 8.5 or 21.25 μmol/kg, or vehicle; one cycle), or one dose daily for three consecutive days, repeated again five days later (cis-AVTP, trans-AVTG or 6-TG, 8.5 or 21.25 μmol/kg, or vehicle; two cycles).
(§2) The mice were sacrificed 24 h after the last treatment. Urine was collected for 24 h before initiation of treatment and every 24 h thereafter until the mice were sacrificed. Blood was collected by cardiac puncture and blood cells counted. Sections of liver, kidney, intestines, stomach and sternum were stained with hematoxylin and eosin and subjected to pathological analysis. Bone marrow smears were prepared for assessment of bone marrow cellularity. Liver function was evaluated by measuring alanine aminotransferase-(ALT) and aspartate aminotransferase (AST) activities in plasma. Kidney function was evaluated by measuring blood urea nitrogen in plasma and γ-glutamyltransferase activity and glucose levels in urine.

[2] = test system: Heterozygous nude CD-1 male mice; experiment: Intestinal pathological analysis (crypt epithelial cell apoptosis) in treated mice; details: multiple doses
Protocol: as §1, §2

MDA-N = assay type: cell-based; details: Breast, 48 h
PC-3 = assay type: cell-based; details: PC-3, Prostate, 48 h
NCI-H23 = assay type: cell-based; details: NCI-H23, Non-Small Cell Lung, 48 h
OVCAR-4 = details: for CC50: read-out: LC50
OVCAR-5 = details: for CC50: read-out: LC50
HT29 = details: for CC50: read-out: LC50
UO-31 = details: for CC50: read-out: LC50
UACC-257 = details: for CC50: read-out: LC50
SF-268 = details: for CC50: read-out: LC50
SF-539 = details: for CC50: read-out: LC50
SNB-19 = details: for CC50: read-out: LC50
SNB-75 = details: for CC50: read-out: LC50
U251 = details: for CC50: read-out: LC50
MOLT-4 = details: for CC50: read-out: LC50
RPMI-8226 = details: for CC50: read-out: LC50
[3] = Homo sapiens, read-out: LC50 (the source's name)

Sc1ncnc2nc[nH]c12 [6-MP, 6-mercaptopurine]
GI50 (MDA-MB-435): 1.4 µM | TGI (MDA-MB-435): >100 µM | CC50 (MDA-MB-435): > 100 µM | TGI (HCT-116): >100 µM | CC50 (HCT-116): > 100 µM | CC50 (SN12C): > 100 µM | GI50 (SN12C): 22.6 µM | TGI (SN12C): >100 µM | GI50 (TK-10): 1.83 µM | TGI (TK-10): >100 µM | CC50 (TK-10): > 100 µM | GI50 (SF-295): 5.36 µM | TGI (SF-295): >100 µM | CC50 (SF-295): > 100 µM

Nc1nc2nc[nH]c2c(=S)[nH]1 [6-TG, 6-thioguanine]
ALT ([1]; 8.5 μmol/kg, one cycle): 9.2 ± 3.2 SF U/ml | AST ([1]; 8.5 μmol/kg, one cycle): 43.5 ± 24.8 SF U/ml | ALT ([1]; 8.5 μmol/kg, two cycles): 10.5 ± 6.6^a SF U/ml | AST ([1]; 8.5 μmol/kg, two cycles): 37.9 ± 12.2^a SF U/ml | ALT ([1]; 21.25 μmol/kg, one cycle): 15.0 ± 2.5^b SF U/ml | AST ([1]; 21.25 μmol/kg, one cycle): 44.4 ± 5.4^c SF U/ml | ALT ([1]; 21.25 μmol/kg, two cycles): 12.6 ± 4.8^a SF U/ml | AST ([1]; 21.25 μmol/kg, two cycles): 68.2 ± 54.5^a SF U/ml | crypt epithelial apoptosis, large intestines [2]: considerable crypt cell apoptosis | crypt epithelial cell apoptosis, small intestines [2]: extensively | GI50 (MDA-MB-435): 0.84 µM | TGI (MDA-MB-435): 31.9 µM | CC50 (MDA-MB-435): > 100 µM | GI50 (HCT-116): 0.53 µM | TGI (HCT-116): 16.2 µM | CC50 (HCT-116): > 100 µM | CC50 (SN12C): > 100 µM | GI50 (SN12C): 1.25 µM | TGI (SN12C): >100 µM | GI50 (TK-10): 1.04 µM | TGI (TK-10): 78.3 µM | CC50 (TK-10): > 100 µM | GI50 (SF-295): 1.02 µM | TGI (SF-295): >100 µM | CC50 (SF-295): > 100 µM

CC(=O)C=CSc1ncnc2nc[nH]c12 [cis-AVTP, 6-(2-acetylvinylthio) purine]
TGI (MDA-N): 4.48 µM | GI50 (MDA-N; Homo sapiens): 0.55 µM | CC50 (MDA-N; [3]): > 100 µM | GI50 (PC-3; Homo sapiens): 2.05 µM | CC50 (PC-3; [3]): 85.1 µM | TGI (PC-3): 10.2 µM | GI50 (NCI-H23; Homo sapiens): 1.48 µM | CC50 (NCI-H23; [3]): 27.8 µM | TGI (NCI-H23): 4.58 µM | ALT ([1]; 8.5 μmol/kg, two cycles): 7.8 ± 4.0^a SF U/ml | AST ([1]; 8.5 μmol/kg, two cycles): 55.1 ± 37.5^a SF U/ml | ALT ([1]; 21.25 μmol/kg, one cycle): 2.0 ± 2.0^a,* SF U/ml | AST ([1]; 21.25 μmol/kg, one cycle): 25.5 ± 4.3^a SF U/ml | ALT ([1]; 21.25 μmol/kg, two cycles): 16.0 ± 4.3^a,# SF U/ml | AST ([1]; 21.25 μmol/kg, two cycles): 60.2 ± 30.8^a SF U/ml | crypt epithelial apoptosis, large intestines [2]: no increase | crypt epithelial cell apoptosis, small intestines [2]: increased slightly | TGI (HL-60(TB); Leukemia, 48 h): 4.95 µM | GI50 (OVCAR-4; Homo sapiens, OVCAR-4, 48 h): 0.51 µM | CC50 (OVCAR-4; Homo sapiens, OVCAR-4, 48 h): 25.6 µM | TGI (OVCAR-4; OVCAR-4, Ovarian, 48 h): 4.06 µM | GI50 (OVCAR-5; Homo sapiens, OVCAR-5, 48 h): 1.31 µM | CC50 (OVCAR-5; Homo sapiens, OVCAR-5, 48 h): 6.57 µM | TGI (OVCAR-5; OVCAR-5, Ovarian, 48 h): 2.94 µM | TGI (HT29; HT29, Colon, 48 h): 2.85 µM | GI50 (HT29; Homo sapiens, HT-29, 48 h): 0.73 µM | CC50 (HT29; Homo sapiens, HT-29, 48 h): 9.23 µM | GI50 (UO-31; Homo sapiens, UO-31, 48 h): 0.6 µM | CC50 (UO-31; Homo sapiens, UO-31, 48 h): 4.48 µM | TGI (UO-31; UO-31, Renal, 48 h): 1.85 µM | GI50 (UACC-257; Homo sapiens, UACC-257, 48 h): 2.4 µM | CC50 (UACC-257; Homo sapiens, UACC-257, 48 h): > 100 µM | TGI (UACC-257; UACC-257, Melanoma, 48 h): 27.4 µM | GI50 (SF-268; Homo sapiens, SF-268, 48 h): < 0.01 µM | CC50 (SF-268; Homo sapiens, SF-268, 48 h): 27.7 µM | TGI (SF-268; SF-268, CNS, 48 h): 0.24 µM | GI50 (SF-539; Homo sapiens, SF-539, 48 h): 0.65 µM | CC50 (SF-539; Homo sapiens, SF-539, 48 h): 11.8 µM | TGI (SF-539; SF-539, CNS, 48 h): 2.86 µM | GI50 (SNB-19; Homo sapiens, SNB-19, 48 h): 3.66 µM | CC50 (SNB-19; Homo sapiens, SNB-19, 48 h): 76.3 µM | TGI (SNB-19; SNB-19, CNS, 48 h): 18.2 µM | GI50 (SNB-75; Homo sapiens, SNB-75, 48 h): 4.19 µM | CC50 (SNB-75; Homo sapiens, SNB-75, 48 h): 49.1 µM | TGI (SNB-75; SNB-75, CNS, 48 h): 18.6 µM | GI50 (U251; Homo sapiens, U-251, 48 h): 2.74 µM | CC50 (U251; Homo sapiens, U-251, 48 h): 56.3 µM | TGI (U251; U251, CNS, 48 h): 10.2 µM | GI50 (CCRF-CEM; Homo sapiens, 48 h): 0.2 µM | CC50 (CCRF-CEM; Homo sapiens, 48 h, read-out: LC50): > 100 µM | TGI (CCRF-CEM; Leukemia, 48 h): 2.17 µM | GI50 (MOLT-4; Homo sapiens, MOLT-4, 48 h): 0.36 µM | CC50 (MOLT-4; Homo sapiens, MOLT-4, 48 h): > 100 µM | TGI (MOLT-4; MOLT-4, Leukemia, 48 h): >100 µM | GI50 (RPMI-8226; Homo sapiens, RPMI-8226, 48 h): 0.12 µM | CC50 (RPMI-8226; Homo sapiens, RPMI-8226, 48 h): > 100 µM | TGI (RPMI-8226; RPMI-8226, Leukemia, 48 h): 1.67 µM

CC(=O)C=CSc1nc(N)nc2nc[nH]c12 [trans-AVTG, 6-(2-acetylvinylthio) guanine]
GI50 (MDA-N): 1.28 µM | TGI (MDA-N): 10.3 µM | GI50 (PC-3): 3.96 µM | TGI (PC-3): 19.7 µM | GI50 (NCI-H23): 3.05 µM | TGI (NCI-H23): 16.3 µM | GI50 (HL-60(TB); Leukemia, 48 h): 3.77 µM | TGI (HL-60(TB); Leukemia, 48 h): 16.6 µM | CC50 (HL-60(TB); read-out: LC50, Leukemia, 48 h): > 100 µM | GI50 (OVCAR-4; OVCAR-4, Ovarian, 48 h): 2.46 µM | TGI (OVCAR-4; OVCAR-4, Ovarian, 48 h): 17.0 µM | CC50 (OVCAR-4; OVCAR-4, Ovarian, 48 h): 45.1 µM | GI50 (OVCAR-5; OVCAR-5, Ovarian, 48 h): 0.54 µM | TGI (OVCAR-5; OVCAR-5, Ovarian, 48 h): 6.04 µM | CC50 (OVCAR-5; OVCAR-5, Ovarian, 48 h): 57.7 µM | GI50 (HT29; HT29, Colon, 48 h): 1.06 µM | TGI (HT29; HT29, Colon, 48 h): 12.5 µM | CC50 (HT29; HT29, Colon, 48 h): 60.4 µM | GI50 (UO-31; UO-31, Renal, 48 h): 0.62 µM | TGI (UO-31; UO-31, Renal, 48 h): 11.9 µM | CC50 (UO-31; UO-31, Renal, 48 h): 39.1 µM | GI50 (UACC-257; UACC-257, Melanoma, 48 h): 11.6 µM | TGI (UACC-257; UACC-257, Melanoma, 48 h): >100 µM | CC50 (UACC-257; UACC-257, Melanoma, 48 h): > 100 µM | GI50 (SF-268; SF-268, CNS, 48 h): < 0.01 µM | TGI (SF-268; SF-268, CNS, 48 h): 0.43 µM | CC50 (SF-268; SF-268, CNS, 48 h): 24.4 µM | GI50 (SF-539; SF-539, CNS, 48 h): 0.81 µM | TGI (SF-539; SF-539, CNS, 48 h): 16.3 µM | CC50 (SF-539; SF-539, CNS, 48 h): > 100 µM | GI50 (SNB-19; SNB-19, CNS, 48 h): 18.7 µM | TGI (SNB-19; SNB-19, CNS, 48 h): 50.9 µM | CC50 (SNB-19; SNB-19, CNS, 48 h): > 100 µM | GI50 (SNB-75; SNB-75, CNS, 48 h): 9.17 µM | TGI (SNB-75; SNB-75, CNS, 48 h): >100 µM | CC50 (SNB-75; SNB-75, CNS, 48 h): > 100 µM | GI50 (U251; U251, CNS, 48 h): 6.55 µM | TGI (U251; U251, CNS, 48 h): 48.4 µM | CC50 (U251; U251, CNS, 48 h): > 100 µM | GI50 (CCRF-CEM; Leukemia, 48 h): 0.14 µM | TGI (CCRF-CEM; Leukemia, 48 h): 1.83 µM | CC50 (CCRF-CEM; read-out: LC50, Leukemia, 48 h): 54.8 µM | GI50 (MOLT-4; MOLT-4, Leukemia, 48 h): 0.7 µM | TGI (MOLT-4; MOLT-4, Leukemia, 48 h): >100 µM | CC50 (MOLT-4; MOLT-4, Leukemia, 48 h): > 100 µM | GI50 (RPMI-8226; RPMI-8226, Leukemia, 48 h): 0.24 µM | TGI (RPMI-8226; RPMI-8226, Leukemia, 48 h): 3.19 µM | CC50 (RPMI-8226; RPMI-8226, Leukemia, 48 h): > 100 µM
